pIC50: −log10 of the molar value.
What was measured:
[1] = tested on: human factor Xa; assay: factor Xa inhibition, ammonium methylation series (cation–π); assay type: biochemical; conditions: trimethylated ammonium 17 vs tert-butyl analog 15
[2] = tested on: thrombin; design: method as in PMID 20148533; conditions: thrombin inhibitors; cited from earlier work
[3] = tested on: human sEH; design: method as in PMID 19746975; conditions: human sEH inhibitors; cited from earlier work
[4] = tested on: human EGFR; assay: EGFR inhibition (salt bridge pair); assay type: biochemical; conditions: 9 (carbon in place of terminal N,N-dimethylamino nitrogen) vs 10
[5] = tested on: human EGFR; design: method as in PMID 23611691; conditions: human EGFR inhibitors; cited from earlier work

Compound	pIC50 [3]	pIC50 [5]	further results
C[N+](C)(C)CCCN1C(=O)[C@@H]2[C@H](C1=O)[C@H](c1cc(-c3ccc(Cl)s3)on1)N1CCC[C@@H]21 (racemic) [(±)-17]	–	–	fold increase in potency [1]: 60 fold
O=C(NCc1cccc(Cl)c1)[C@@H]1CCCN1C(=O)CCc1ccccc1 [compound 3]	–	–	pIC50 [2]: 4.03
O=C(NCCCc1ccccc1)c1cccnc1 [compound 5]	6.15	–	–
CC(C)CCCC(=O)Nc1cccc(-c2c(-c3ccccc3)oc3ncnc(N[C@H](CO)c4ccccc4)c23)c1 [compound 9]	–	< 4.60	potency reduced by fold [4]: more than 800 fold
CN(C)CCCC(=O)Nc1cccc(-c2c(-c3ccccc3)oc3ncnc(N[C@H](CO)c4ccccc4)c23)c1 [compound 10]	–	7.54	–
